The target in series [1] is CLK2 (Homo sapiens, UniProt P49760). The series can be described thus: Z'-LYTE activity assay (ThermoFisher SelectScreen). Format: biochemical. Details: purchased SelectScreen Services (ThermoFisher). The settings on record: [ATP] = Kmapp. The source says:
(§1) In vitro biochemical assays. Several small molecule assays were outsourced to SelectScreen Services (ThermoFisher) for STK33 and for off-target kinases (data sets are available on demand).
(§2) These assays are LanthaScreen (binding assay) and Z’-LYTE (activity assay). Dose-responses were done with at least 5 different concentrations in duplicates, and parameters were optimized by calculations described below and provided with standard errors. […]
(§3) Calculation of Ki values for kinase inhibitors from Z’-LYTE inhibition data. The Morrison equation with [ATP] = Kmapp for competitive inhibition (GraphPad Prism 7, San Diego, CA) was used to get Ki values. Since Kd and Ki values are defined the same way, in other words, Kd = [E] [I] / [EI] = Ki, Kd and Ki values can be compared. […]

Series [2] addresses RET (Homo sapiens, UniProt P07949). Put plainly: Z'-LYTE activity assay (ThermoFisher SelectScreen). Details: purchased SelectScreen Services (ThermoFisher). The settings on record: [ATP] = Kmapp. In kind it is biochemical.
Description: as §1, §2, §3

The target of series [3] is CLK1 (Homo sapiens, UniProt P49759). The series can be described thus: Z'-LYTE activity assay (ThermoFisher SelectScreen). In kind it is biochemical. Details: purchased SelectScreen Services (ThermoFisher). The settings on record: [ATP] = Kmapp.
Description: as §1, §2, §3

The test system of series [4] is male mice. The series can be described thus: Computer assisted sperm analysis (CASA) of cauda epididymis sperm. Format: in vivo. The text has this:
To further understand the cause of the contraceptive effect of CDD-2807, we analyzed sperm from the cauda epididymis of each mouse using computer assisted sperm analysis (CASA). Although sperm counts were lower in the controls in protocol 1 mice versus CDD-2807–treated mice (fig. S23C), sperm motility (fig. S23D), progressive sperm (fig. S23E), and hyperactivated sperm (fig. S23F) were reduced in the CDD-2807–treated mice. In protocol 2, sperm counts (Fig. 4D), sperm motility (Fig. 4E), progressive sperm (Fig. 4F), and hyperactivated sperm (Fig. 4G) were reduced in the CDD-2807-treated mice versus control mice. […] Thus, low dose (CDD-2807 at 15 mg kg^−1 twice per day for 45 days) or reduced duration (CDD-2807 at 50 mg kg^−1 day^−1 for 7 days) appears to cause a functional defect in motility, whereas high dose (CDD-2807 at 50 mg kg^−1 day^−1 for 63 days) causes both functional and morphologic defects, consistent with the Stk33 knockout and likely a direct role of STK33 in phosphorylation of fibrous sheath proteins A-kinase anchoring protein 3 (AKAP3) and AKAP4 and/or other STK33 targets ([48]).

Series [5] has as its system male mice. The series can be described thus: Histological analysis of testis and epididymis. In kind it is in vivo. The source says:
fig. S24. Histological analysis of testis and epididymis segments (caput & corpus) from control and CDD-2807-treated male mice from protocol 1. Bouin’s fixed, 4 µm-cross sections of the testis (A) and horizontal sections of the epididymis (B) were stained with PAS-hematoxylin.
All 12 stages of spermatogenesis are represented in both control and CDD-2807-treated mice and show normal tissue morphology and acrosome development. Epididymis from the control and CDD-2807-treated mice were similar histologically. Scale bars are 60 µm.
(1 picture or pasted object on this page, not shown here) […]
fig. S25. Histological analysis of testis and epididymis segments (caput & corpus) from control and CDD-2807-treated male mice from protocol 2. Bouin’s fixed, 4 µm-cross sections of the testis (A) and longitudinal sections of the epididymis (B) were stained with PAS-hematoxylin. All 12 stages of spermatogenesis are represented in both control and CDD-2807-treated mice, although it was difficult to find all stages in the CDD-2807-treated mice. Epididymis from the control and CDD-2807-treated mice were very different histologically, control mice had normal sperm cells, while CDD-2807 mice had occasional round spermatids present in the epididymis. Scale bars are 60 µm.

Setting [6] is: 50 mg/kg/day for 7 days (Protocol 3).
Where [7] appears, read: protocol 2 at 63 days, vs control.

Sequence of CLK1 (P49759 whole entry): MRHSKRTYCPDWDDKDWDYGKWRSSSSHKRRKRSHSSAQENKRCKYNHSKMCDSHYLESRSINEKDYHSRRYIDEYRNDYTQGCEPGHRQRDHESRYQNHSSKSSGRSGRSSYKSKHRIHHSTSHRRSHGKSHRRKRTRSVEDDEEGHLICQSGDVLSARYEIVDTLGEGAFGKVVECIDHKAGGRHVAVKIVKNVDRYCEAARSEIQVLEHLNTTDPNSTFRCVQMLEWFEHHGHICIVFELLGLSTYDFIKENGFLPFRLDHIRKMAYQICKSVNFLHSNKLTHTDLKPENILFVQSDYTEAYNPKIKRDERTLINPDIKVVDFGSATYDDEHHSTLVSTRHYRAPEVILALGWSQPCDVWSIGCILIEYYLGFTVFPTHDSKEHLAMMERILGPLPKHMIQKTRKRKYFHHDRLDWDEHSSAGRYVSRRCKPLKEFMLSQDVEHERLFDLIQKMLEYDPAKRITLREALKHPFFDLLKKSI
Sequence of CLK2 (P49760 whole entry): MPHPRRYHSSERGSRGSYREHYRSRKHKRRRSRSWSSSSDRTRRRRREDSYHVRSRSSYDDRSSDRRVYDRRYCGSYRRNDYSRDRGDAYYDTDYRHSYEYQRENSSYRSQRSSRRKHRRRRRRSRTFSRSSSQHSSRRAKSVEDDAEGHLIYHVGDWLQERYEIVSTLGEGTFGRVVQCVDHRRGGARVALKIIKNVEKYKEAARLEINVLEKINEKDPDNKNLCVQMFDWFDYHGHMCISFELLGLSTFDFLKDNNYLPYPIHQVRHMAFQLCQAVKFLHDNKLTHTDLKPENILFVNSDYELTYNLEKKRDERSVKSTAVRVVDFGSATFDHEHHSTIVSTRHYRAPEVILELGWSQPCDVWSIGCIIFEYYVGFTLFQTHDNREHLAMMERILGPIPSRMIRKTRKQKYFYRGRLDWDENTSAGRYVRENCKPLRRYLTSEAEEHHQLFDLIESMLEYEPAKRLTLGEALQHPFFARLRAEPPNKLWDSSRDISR
Sequence of RET (P07949 29-1114): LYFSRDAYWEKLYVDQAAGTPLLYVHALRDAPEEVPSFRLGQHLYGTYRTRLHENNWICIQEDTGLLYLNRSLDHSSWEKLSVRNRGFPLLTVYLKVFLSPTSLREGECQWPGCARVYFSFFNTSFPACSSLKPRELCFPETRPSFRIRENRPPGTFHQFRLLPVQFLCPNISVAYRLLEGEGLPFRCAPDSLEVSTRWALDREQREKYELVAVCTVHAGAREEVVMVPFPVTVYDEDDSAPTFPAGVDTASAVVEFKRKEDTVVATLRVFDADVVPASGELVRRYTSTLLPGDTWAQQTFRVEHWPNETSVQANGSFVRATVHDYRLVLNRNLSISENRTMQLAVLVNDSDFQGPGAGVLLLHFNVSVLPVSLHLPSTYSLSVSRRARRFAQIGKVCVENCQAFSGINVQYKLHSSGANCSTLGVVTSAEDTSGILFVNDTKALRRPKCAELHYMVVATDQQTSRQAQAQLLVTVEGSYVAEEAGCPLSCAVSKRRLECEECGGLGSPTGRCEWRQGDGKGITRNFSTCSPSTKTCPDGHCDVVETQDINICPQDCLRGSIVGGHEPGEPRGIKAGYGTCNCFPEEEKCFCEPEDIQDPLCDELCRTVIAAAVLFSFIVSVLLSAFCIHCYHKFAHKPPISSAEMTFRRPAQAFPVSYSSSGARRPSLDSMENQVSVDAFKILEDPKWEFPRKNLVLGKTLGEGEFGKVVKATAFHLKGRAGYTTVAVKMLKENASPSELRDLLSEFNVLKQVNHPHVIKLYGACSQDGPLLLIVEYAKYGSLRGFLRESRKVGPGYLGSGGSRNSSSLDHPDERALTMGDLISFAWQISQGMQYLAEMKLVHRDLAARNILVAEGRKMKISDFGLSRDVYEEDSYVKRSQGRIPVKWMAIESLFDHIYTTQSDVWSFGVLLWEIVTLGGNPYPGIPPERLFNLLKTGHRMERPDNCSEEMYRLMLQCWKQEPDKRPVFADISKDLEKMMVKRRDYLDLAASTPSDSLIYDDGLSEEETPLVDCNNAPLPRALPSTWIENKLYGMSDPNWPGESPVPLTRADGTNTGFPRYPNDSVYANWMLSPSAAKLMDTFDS

In series [1], `O=C(c1ccc2[nH]nc(C#Cc3ccccc3-c3ccccc3)c2c1)N1CC2(CCCNC2)C1` [CDD-2807] registered a Ki of 1.3 nM. In series [2], affinity was put at a Ki of 0.3 nM. The Ki in series [3] came to 3.1 nM. In series [4] (setting [6]), the progressive sperm result is reported as “statistically significant reductions”, the sperm counts result was “did not alter”, the sperm hyperactivation entry is reported as “statistically significant reductions” and the sperm motility entry is given as “statistically significant reductions”. Moreover, in series [4] (protocol 1, day 45, vs control), the hyperactivated sperm entry is reported as “reduced”, the progressive sperm result is “reduced” and the sperm motility result is “reduced”. For the same molecule, in series [4] (setting [7]), the hyperactivated sperm entry is “significant decrease”, the progressive sperm result was “significant decrease”, the sperm counts result is “significant decrease” and the sperm motility result is listed as “significant decrease”. In series [5] (protocol 1), the “histology of testes and epididymis” value is recorded as “no detectable defects”. For the same molecule, the histology of epididymis entry in series [5] (protocol 2) is “round spermatids in the epididymis”.

For orientation: Ki means a measure of affinity in units of concentration, obtained from inhibition or displacement.

(Values after publication PMC11842024, “Reversible male contraception by targeted inhibition of serine/threonine kinase 33” (Science (New York, N.Y.), 2024).)
